In ChEMBL document CHEMBL5729382, “Inhibitors of cysteine proteases and methods of use thereof” (2022):

Test: Evaluation of Antiviral Activity of Compounds Against Human Coronavirus (HCov) 229E: Compounds were assayed using standard methods against multiple coronaviral strains, including HCoV 229E and OC43 strains. […] The antiviral activity of compounds was calculated based on the protection of the virus-induced CPE at each concentration normalized by the virus control.

| Structure (SMILES) | IC50 [µM] |
| --- | --- |
| N#CC1(NC(=O)[C@@H](CC2CC2)NC(=O)OCc2ccccc2)C[C@H]2CC[C@@H]1[C@H]1C(=O)NC(=O)[C@@H]21 (single isomer, unassigned; isomer 1) | > 30 |
| COc1cccc2[nH]c(C(=O)N[C@H](CC3CC3)C(=O)N[C@@]3(C#N)CC4CCC3[C@H]3C(=O)NC(=O)[C@@H]43)cc12 (single isomer, unassigned; isomer 1) | > 30 |
